From ChEMBL document CHEMBL5360588, “LC-MS-Guided Isolation of Cyanogripeptides A-C, Cyclolipopeptides with β-Methyl-Leucine Residues, from an Actinoalloteichus cyanogriseus LHW52806” (J Nat Prod, 2023)

Legend:
PC-3 = test: Antiproliferative activity against human PC-3 cells assessed as inhibition of cell growth measured after 72 by Cell titre-glo assay; format: functional, cell-based
HT-29 = test: Antiproliferative activity against human HT-29 cells assessed as inhibition of cell growth measured after 72 by Cell titre-glo assay; format: functional, cell-based
Daudi = test: Antiproliferative activity against human Daudi cells assessed as inhibition of cell growth measured after 72 by Cell titre-glo assay; format: functional, cell-based
A2780 = test: Antiproliferative activity against human A2780 cells assessed as inhibition of cell growth measured after 72 by Cell titre-glo assay; format: functional, cell-based
Raji = test: Antiproliferative activity against human Raji cells assessed as inhibition of cell growth measured after 72 by Cell titre-glo assay; format: functional, cell-based
NB-4 = test: Antiproliferative activity against human NB4 cells assessed as inhibition of cell growth measured after 72 by Cell titre-glo assay; format: functional, cell-based
PC-9 = test: Antiproliferative activity against human PC-9 cells assessed as inhibition of cell growth measured after 72 by Cell titre-glo assay; format: functional, cell-based
U-937 = test: Antiproliferative activity against human U-937 cells assessed as inhibition of cell growth measured after 72 by Cell titre-glo assay; format: functional, cell-based
Helicobacter pylori [1] = test: Antibacterial activity against Helicobacter pylori 26695 assessed as inhibition of bacterial growth measured after 3 days by broth microdilution assay; format: functional; conditions: Helicobacter pylori, 26695, 72 h; time 3 day
Helicobacter pylori [2] = test: Antibacterial activity against Helicobacter pylori G27 assessed as inhibition of bacterial growth measured after 3 days by broth microdilution assay; format: functional; conditions: G27, 72 h, time 3 day
[3] = tested on: Mycolicibacterium smegmatis; test: Antibacterial activity against Mycolicibacterium smegmatis ATCC607 assessed as inhibition of bacterial growth measured after 3 days by broth microdilution assay; format: functional; conditions: ATCC607, 72 h, time 3 day

CC(C)CCC(=O)N[C@@H](CC(C)C)C(=O)N[C@H](CCCNC(=N)N)C(=O)N[C@@H]1C(=O)N[C@@H]([C@@H](C)C(C)C)C(=O)NCC(=O)N[C@@H]([C@H](C)C(C)C)C(=O)O[C@@H]1C
> 20 µM: IC50 (PC-3) | IC50 (HT-29) | IC50 (Daudi) | IC50 (A2780) | IC50 (Raji) | IC50 (NB-4) | IC50 (PC-9) | IC50 (U-937)

CC(C)C[C@H](NC(=O)Cc1ccccc1)C(=O)N[C@H](CCCNC(=N)N)C(=O)N[C@@H]1C(=O)N[C@@H]([C@@H](C)C(C)C)C(=O)NCC(=O)N[C@@H]([C@H](C)C(C)C)C(=O)O[C@@H]1C
> 20 µM: IC50 (PC-3) | IC50 (HT-29) | IC50 (Daudi) | IC50 (A2780) | IC50 (Raji) | IC50 (NB-4) | IC50 (PC-9) | IC50 (U-937)

CC(C)CCCCC(=O)N[C@@H](CC(C)C)C(=O)N[C@H](CCCNC(=N)N)C(=O)N[C@@H]1C(=O)N[C@@H]([C@@H](C)C(C)C)C(=O)NCC(=O)N[C@@H]([C@H](C)C(C)C)C(=O)O[C@@H]1C
32 µg/mL: MIC (Helicobacter pylori [1]) | MIC (Helicobacter pylori [2]) | MIC [3]
> 20 µM: IC50 (PC-3) | IC50 (HT-29) | IC50 (Daudi) | IC50 (A2780) | IC50 (Raji) | IC50 (NB-4) | IC50 (PC-9) | IC50 (U-937)
